Experiments:
[1] = test system: IL-12p70 production in PBMCs stimulated with LPS; assay: Stimulation of IL-12p70 in human PBMCs stimulated with LPS (ELISA / multiplex immunoassay); assay type: cell-based; conditions: PBMC, LPS 1 μg/mL, 72 hrs culture, read-out: Stimulation of IL-12p70 in PBMC's stimulated with LPS EC50
Experimental: (§1) Human PBMCs from six healthy donors were isolated from whole blood. PBMCs were resuspended in RPMI-10 at 1×10^6/mL and plated at a density of 2×10^5 per well (200 μL) in 96-well round bottom culture plates. Treatments or reference controls at different concentrations were prepared in DMSO according to client/supplier instruction and added directly to wells at a final volume of 0.2 μL per well (1:1000). After 2 hours, LPS was added to the culture (1 μg/mL final, 10 μL per well). Cells were cultured for 72 hrs at 37° C. and 5% CO2. Cell-free supernatants were collected at the end of culture period, transferred to new 96-well plates and frozen at −80° C. prior to assessment of IFN-γ, IL-10, IL-12p70 and TNF-α by ELISA and multiplex immunoassay.
(§2) Cultures were performed in triplicate to provide technical replicates and PBMCs from six healthy donors were included to provide biological replication.
(§3) All test and reference substances were formulated at 10 mM stock concentration in anhydrous DMSO, filtered and frozen in aliquots. Immediately prior to addition to assay, stock solutions were diluted in DMSO to prepare solutions at 1000 times the final required concentration. All final formulations were freshly prepared and kept sterile and light protected prior to the addition in cultures.
(§4) ELISA plates were read at 450 nm using an Infinite F50 (Tecan) absorbance reader and Magellan™ reader control and data analysis software. Multiplex immunoassays were read using a Luminex MAGPIX multiplexing system and ProcartaPlex Analyst 1.0 software. Graphs were prepared using Graphpad Prism (v6.0). Data were normalised to mean of respective vehicle control group (100%) within each biological replicate to account for donor variation.

[2] = test system: IFN-γ production in PBMCs stimulated with LPS; assay: Stimulation of IFN-γ in human PBMCs stimulated with LPS (ELISA / multiplex immunoassay); assay type: cell-based; conditions: LPS 1 μg/mL, 72 hrs culture
Experimental: as §1, §2, §3, §4

[3] = test system: IL10 production in PBMCs stimulated with LPS; assay: Inhibition of IL10 in human PBMCs stimulated with LPS (ELISA / multiplex immunoassay); assay type: cell-based; conditions: for IC50: PBMC, human PBMCs, LPS 1 μg/mL, 72 hrs culture, read-out: Inhibition of IL10 in PBMC's stimulated with LPS IC50
Experimental: as §1, §2, §3, §4

[4] = target: p38 MAPK (Homo sapiens, UniProt Q16539); assay: Inhibition of p38 MAPK; assay type: biochemical
Chain of p38 MAPK (Q16539 whole entry): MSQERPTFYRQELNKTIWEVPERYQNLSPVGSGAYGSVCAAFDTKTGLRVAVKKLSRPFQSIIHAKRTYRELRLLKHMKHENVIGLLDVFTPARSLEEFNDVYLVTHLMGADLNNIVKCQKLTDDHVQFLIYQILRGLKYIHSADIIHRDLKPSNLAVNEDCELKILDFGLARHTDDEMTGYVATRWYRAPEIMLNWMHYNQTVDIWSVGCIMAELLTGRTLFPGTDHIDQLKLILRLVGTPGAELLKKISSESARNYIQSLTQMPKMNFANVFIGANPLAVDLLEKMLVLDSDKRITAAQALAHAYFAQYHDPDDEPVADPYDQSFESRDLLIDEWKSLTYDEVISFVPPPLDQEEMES

[5] = versus 6-Amino-5-(2,4-difluorobenzoyl)-1-[2,6-difluorophenyl]pyridin-2(1H)-one and PH797804

| EC50 [4] | Fold less potent inhibitory activity against p38 MAPK than the reference inhibitors [4, 5] | Compound | EC50 [1] | Stimulation of INF-γ in PBMCs stimulated with LPS EC50 (nM) [2] | IC50 [3] | EC50 ([2]; PBMC, read-out: Stimulation of INF-γ in PBMCs stimulated with LPS EC50) | IL10 production inhibited at concentrations fold lower than conventional p38 MAPK inhibitors [3, 5] |
| --- | --- | --- | --- | --- | --- | --- | --- |
| < 1 nM |  | Nc1c(C(=O)c2ccc(F)cc2F)ccc(=O)n1-c1c(F)cccc1F [6-Amino-5-(2,4-difluorobenzoyl)-1-[2,6-difluorophenyl]pyridin-2(1H)-one] | > 300 nM | No stimulation | 10 nM |  |  |
|  |  | CNC(=O)c1ccc(C)c(-n2c(C)cc(OCc3ccc(F)cc3F)c(Br)c2=O)c1 [PH797804, 3-[3-Bromo-4-[(2,4-difluorophenyl)methoxy]-6-methyl-2-oxo-1(2H)-pyridinyl]-N,4-dimethyl-benzamide] | > 300 nM | No stimulation | 10 nM |  |  |
| 12 nM | 10 fold | C[C@H](NCCc1cc(F)c(-n2c(N)c(C(=O)c3ccc(F)cc3F)ccc2=O)c(F)c1)C(=O)OC(C)(C)C [tert-Butyl N-(2-{4-[6-amino-5-(2,4-difluorobenzoyl)-2-oxopyridin-1(2H)-yl]-3,5-difluorophenyl}ethyl)-L-alaninate] | < 1 nM |  | < 1 nM | 1 nM | at least 10 fold |
